Laboratory results published in patent US9028845B2, “Chimeric immunomodulatory compounds and methods of using the same-IV” (Dynavax Technologies Corporation, priority 2001, dated 2015).
“Also recorded” adds a separate entry of the source.

Tests used:
PBMCs = experiment: Human PBMC proliferation assay (3H-thymidine incorporation); format: cell-based; conditions: Experiment A; for mean cpm: 2 μg/ml
CD19+ B cells = experiment: Human B cell proliferation assay (3H-thymidine incorporation); conditions: 2 μg/ml
mice = experiment: Serum cytokines (IL-12 p40, IL-6, TNF-α) after subcutaneous injection in mice; format: in vivo; conditions: 20 ug subcutaneous, blood 2 hours later
Experimental: Blood was collected 2 hours later. For the LPS positive control group, mice were injected intraperitoneally with a 200 ul volume, and blood was collected 1.5 hours later (i.e., at the peak of LPS induced TNF-α activity). The blood was clotted and the serum was prepared and stored at −80° C. until assayed. Serum cytokines were assayed using Biosource cytoscreen kits for TNF-α and Pharmingen antibody pairs for mIL-6 and mIL-12. All samples were assayed in duplicate.

human PBMCs = experiment: Human PBMC cytokine response assay (IFN-γ and IFN-α in cell-free medium by ELISA), with or without cPLGA; format: cell-based;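 on IFN-α (pg/ml) mean: 20 µg/mL compound for 24 hours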;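 on IFN-γ (pg/ml) mean: 20 µg/mL compound for 24 hours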
[1] = B cells, Donor 146, Experiment A
[2] = B cells, Donor 147, Experiment A
[3] = Table 25, mean of donors 28250-28253
[4] = mean of Donors 1-2, 20 μg/ml, 24 h
[5] = mean of Donors 3-4, 20 μg/ml, 24 h

Substance: 5′-TCGTCGA-3′ [Compound P-1, reference compound]
- cpm1 (PBMCs; Donor 146, 2 μg/ml): 9724 cpm
- cpm2 (PBMCs; Donor 146, 2 μg/ml): 3041 cpm
- cpm3 (PBMCs; Donor 146, 2 μg/ml): 2425 cpm
- mean cpm (PBMCs; Donor 146 mean): 5063 cpm
- cpm1 (PBMCs; Donor 147, 2 μg/ml): 1706 cpm
- cpm2 (PBMCs; Donor 147, 2 μg/ml): 1960 cpm
- cpm3 (PBMCs; Donor 147, 2 μg/ml): 324 cpm
- mean cpm (PBMCs; Donor 147 mean): 1330 cpm
- mean of both (PBMCs; mean of Donors 146 and 147, 2 μg/ml): 3197 cpm
- B cell proliferation, in words (CD19+ B cells; 48 h plus 8 h 3H-thymidine pulse): little to no B cell proliferation
- cpm1 (CD19+ B cells; [1]): 761 cpm
- cpm2 (CD19+ B cells; [1]): 608 cpm
- cpm3 (CD19+ B cells; [1]): 721 cpm
- mean cpm (CD19+ B cells; B cells, Donor 146 mean, Experiment A): 697 cpm
- cpm1 (CD19+ B cells; [2]): 569 cpm
- cpm2 (CD19+ B cells; [2]): 460 cpm
- cpm3 (CD19+ B cells; [2]): 687 cpm
- mean cpm (CD19+ B cells; B cells, Donor 147 mean, Experiment A): 572 cpm
- mean of both (CD19+ B cells; B cells, mean of Donors 146 and 147, Experiment A): 634 cpm
- induction of serum IL-12 p40, IL-6 and TNF-α, in words (mice): inactive
- IFN-α (pg/ml) Donor 1 (human PBMCs; Donor 1, 20 μg/ml, 24 h): 0 pg/mL
- IFN-γ (pg/ml) Donor 1 (human PBMCs; Donor 1, 20 μg/ml, 24 h): 8 pg/mL
- IFN-α (pg/ml) Donor 2 (human PBMCs; Donor 2, 20 μg/ml, 24 h): 0 pg/mL
- IFN-γ (pg/ml) Donor 2 (human PBMCs; Donor 2, 20 μg/ml, 24 h): 0 pg/mL
- IFN-α (pg/ml) Donor 3 (human PBMCs; Donor 3, 20 μg/ml, 24 h): 0 pg/mL
- IFN-γ (pg/ml) Donor 3 (human PBMCs; Donor 3, 20 μg/ml, 24 h): 1 pg/mL
- IFN-α (pg/ml) Donor 4 (human PBMCs; Donor 4, 20 μg/ml, 24 h): 32 pg/mL
- IFN-γ (pg/ml) Donor 4 (human PBMCs; Donor 4, 20 μg/ml, 24 h): 4 pg/mL
- IFN-a (human PBMCs; Table 25, donor 28250): 16 pg/mL
- IFN-g (human PBMCs; Table 25, donor 28250, polynucleotides/spacers at amounts equivalent to the CIC, spacers alone 9 uM): 54 pg/mL
- IFN-a (human PBMCs; Table 25, donor 28251): 16 pg/mL
- IFN-g (human PBMCs; Table 25, donor 28251): 21 pg/mL
- IFN-a (human PBMCs; Table 25, donor 28252): 16 pg/mL
- IFN-g (human PBMCs; Table 25, donor 28252): 56 pg/mL
- IFN-a (human PBMCs; Table 25, donor 28253): 16 pg/mL
- IFN-g (human PBMCs; Table 25, donor 28253): 1 pg/mL
- IFN-a mean (human PBMCs; [3]): 16 pg/mL
- IFN-g mean (human PBMCs; [3]): 33 pg/mL
- IFN-α (pg/ml) mean (human PBMCs; [4]): 0 pg/mL
- IFN-γ (pg/ml) mean (human PBMCs; [4]): 4 pg/mL
- IFN-α (pg/ml) mean (human PBMCs; [5]): 16 pg/mL
- IFN-γ (pg/ml) mean (human PBMCs; [5]): 2 pg/mL
- immunomodulatory activity (IFN-γ / IFN-α secretion), in words (human PBMCs; used alone (no cPLGA)): no activity; also recorded: did not have immunomodulatory activity
